Reference: patent US6479435B1, “Diaryl ethers and processes for their preparation and herbicidal and desiccant compositions containing them” (ISK Americas Incorporated, priority 1997, dated 2002)

Columns and labels:
Format in all cases: in vivo
[1] = system: common ragweed (Ambrosia artemisiifolia L., AMBEL); test: Post-emerge greenhouse herbicide test, phytotoxicity rating; conditions: 14 days after application, scale 0-100
Source text: (§1) A standard greenhouse herbicide activity screening system was used to evaluate the herbicidal efficacy and crop safety of these test compounds. Six broadleaf weed species including redroot pigweed (Amaranthus retroflexus, AMARE), velvetleaf (Abutilon theophrasti, ABUTH), sicklepod (Cassia obtusifolia, CASOB), ivyleaf morningglory (Ipomoea hederacea, IPOHE), lambsquarters (Chenopodium album, CHEAL) and common ragweed (Ambrosia artemisiifolia L., AMBEL) were used as test species. Four grass weed species including green foxtail (Setaria viridis, SETVI), barnyardgrass (Echinochloa crusgalli, ECHCG), Johnsongrass (Sorghum halepense, SORHA), and large crabgrass (Digitaria sanguinalis, DIGSA) were also used. In addition, three crop species, field corn (Zea mays L., var. Dekalb 535, CORN), soybean (Glycine max L., var. Pella 86, SOY), and upland rice (Oryza sp., var.Tebonnet, RICE) were included.
All test compounds were dissolved in acetone and applied to the test units in a volume of 187 l/ha. […] Plants were arranged on a shelf so that the top of the canopy (post-emerge) or top of the soil surface (pre-emerge) was 40-45 cm below the nozzle. Pressurized air was used to force the test solution through the nozzle as it was mechanically advanced (via electrically driven chain drive) over the top of all test plants/pots. This application simulates a typical commercial field herbicide application.
(§2) In the post-emerge test, a commercial non-ionic surfactant was also included (0.25% v/v) to enhance wetting of the leaf surfaces Qf target plants at rates ranging from 63 g ai/ha to 1000 g ai/ha. For post-emerge tests, seeds were planted 8-21 days prior to the test to allow emergence and good foliage development prior to application of the test substances. At the time of the post-emerge application, plants of all species were usually at the 2-3 leaf stage of development. Post-emerge test units were always bottom-watered.
(§3) At 14 days after application of the test materials, phytotoxicity ratings were recorded. A rating scale of 0-100 was used as previously described in Research Methods in Weed Science, 2nd edition, B. Truelove, Ed., Southern Weed Science Society, Auburn University, Auburn, Ala., 1977. Briefly, “0” corresponds to no damage and “100” corresponds to complete death of all plants in the test unit. This scale was used both to determine efficacy against weed species and damage to crop species. Herbicide activity data for various compounds of this invention, which are shown by compound number in Tables 1-9, are shown in Tables 13 and 14.

[2] = system: soybean (Glycine max L., var. Pella 86, SOY); test: Post-emerge greenhouse test, crop damage rating; set-up: key to crop damage rating SOY: 0-100 scale: 0 = no damage, 100 = complete death of all plants; conditions: 14 days after application, scale 0-100
In short: (§4)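 Scores use a 0 (no damage) to 100 (complete kill) scale, taken 14 days after a foliar spray. Acetone solutions with 0.25% v/v non-ionic surfactant were applied by track sprayer at 187 l/ha and 63-1000 g ai/ha to bottom-watered 2-3 leaf plants.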

[3] = system: upland rice (Oryza sp., var.Tebonnet, RICE); test: Post-emerge greenhouse test, crop damage rating; conditions: 14 days after application, scale 0-100
In short: as §4

[4] = system: field corn (Zea mays L., var. Dekalb 535, CORN); test: Post-emerge greenhouse test, crop damage rating; conditions: 14 days after application, scale 0-100
In short: as §4

[5] = system: upland rice (Oryza sp., var.Tebonnet, RICE); test: Pre-emerge greenhouse test, crop damage rating; conditions: 14 days after application, rating scale 0-100
In short: (§5)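 Visual 0–100 injury rating (100 = all plants dead) taken 14 days after treatment. Rates of 125–1000 g ai/ha in acetone, 187 l/ha, were sprayed onto soil one day post-sowing; pots were surface-watered to incorporate, then bottom-watered.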

[6] = system: field corn (Zea mays L., var. Dekalb 535, CORN); test: Pre-emerge greenhouse test, crop damage rating; conditions: 14 days after application, rating scale 0-100
In short: as §5

[7] = system: soybean (Glycine max L., var. Pella 86, SOY); test: Pre-emerge greenhouse test, crop damage rating; set-up: key to SOY crop damage rating: 0 = no damage, 100 = complete death of all plants; conditions: 14 days after application, rating scale 0-100
In short: as §5

[8] = system: large crabgrass (Digitaria sanguinalis, DIGSA); test: Post-emerge greenhouse herbicide test, phytotoxicity rating; conditions: 14 days after application, scale 0-100
Source text: as §1
(§6) All test compounds were dissolved in acetone and applied to the test units in a volume of 187 l/ha. Test materials were applied at rates ranging from 125 g ai/ha to 1000 g ai/ha using a track sprayer equipped with a TJ8001E even flow flat fan spray nozzle. Plants were arranged on a shelf so that the top of the canopy (post-emerge) or top of the soil surface (pre-emerge) was 40-45 cm below the nozzle. Pressurized air was used to force the test solution through the nozzle as it was mechanically advanced (via electrically driven chain drive) over the top of all test plants/pots. This application simulates a typical commercial field herbicide application.
as §2, §3

[9] = system: lambsquarters (Chenopodium album, CHEAL); test: as above; conditions: 14 days after application, scale 0-100
Source text: as §1, §6, §2, §3

[10] = system: barnyardgrass (Echinochloa crusgalli, ECHCG); test: as above; conditions: 14 days after application, scale 0-100
Source text: as §1, §6, §2, §3

[11] = system: ivyleaf morningglory (Ipomoea hederacea, IPOHE); test: as above; conditions: 14 days after application, scale 0-100
Source text: as §1, §6, §2, §3

[12] = system: green foxtail (Setaria viridis, SETVI); test: as above; conditions: 14 days after application, scale 0-100
Source text: as §1, §6, §2, §3

[13] = system: Johnsongrass (Sorghum halepense, SORHA); test: as above; conditions: 14 days after application, scale 0-100
Source text: as §1, §6, §2, §3

[14] = system: velvetleaf (Abutilon theophrasti, ABUTH); test: as above; conditions: 14 days after application, scale 0-100
Source text: as §1, §6, §2, §3

[15] = system: sicklepod (Cassia obtusifolia, CASOB); test: as above; conditions: 14 days after application, scale 0-100
Source text: as §1, §6, §2, §3

[16] = system: redroot pigweed (Amaranthus retroflexus, AMARE); test: as above; conditions: 14 days after application, scale 0-100
Source text: as §1, §6, §2, §3

[17] = system: large crabgrass (Digitaria sanguinalis, DIGSA); test: Pre-emerge greenhouse herbicide test, phytotoxicity rating; conditions: 14 days after application, rating scale 0-100
Source text: as §1
(§7) All plants were grown in 10 cm square plastic pots which were filled with a sandy loam soil mix. For preemerge tests, seeds were planted one day prior to application of the test compounds. Immediately after application, test units of the pre-emerge applications were watered at the soil surface to incorporate the test materials. Subsequently, these test units were bottom-watered.
as §6, §3

[18] = system: lambsquarters (Chenopodium album, CHEAL); test: as above; conditions: 14 days after application, rating scale 0-100
Source text: as §1, §7, §6, §3

[19] = system: barnyardgrass (Echinochloa crusgalli, ECHCG); test: as above; conditions: 14 days after application, rating scale 0-100
Source text: as §1, §7, §6, §3

[20] = system: ivyleaf morningglory (Ipomoea hederacea, IPOHE); test: as above; conditions: 14 days after application, rating scale 0-100
Source text: as §1, §7, §6, §3

[21] = system: green foxtail (Setaria viridis, SETVI); test: as above; conditions: 14 days after application, rating scale 0-100
Source text: as §1, §7, §6, §3

[22] = system: Johnsongrass (Sorghum halepense, SORHA); test: as above; conditions: 14 days after application, rating scale 0-100
Source text: as §1, §7, §6, §3

[23] = system: velvetleaf (Abutilon theophrasti, ABUTH); test: as above; conditions: 14 days after application, rating scale 0-100
Source text: as §1, §7, §6, §3

[24] = system: sicklepod (Cassia obtusifolia, CASOB); test: as above; conditions: 14 days after application, rating scale 0-100
Source text: as §1, §7, §6, §3

[25] = system: redroot pigweed (Amaranthus retroflexus, AMARE); test: as above; conditions: 14 days after application, rating scale 0-100
Source text: as §1, §7, §6, §3

CCOC(=O)C(C)Oc1ccc(Oc2cc(-n3c(=O)n4n(c3=S)CCCC4)c(F)cc2Cl)c(N)c1 (centres unmarked) [Compound 8-40]
phytotoxicity rating AMBEL ([1]; rate 63 g ai/ha): 80 | phytotoxicity rating AMBEL ([1]; rate 250 g ai/ha): 20 | crop damage rating SOY ([2]; rate 63 g ai/ha): 80 | crop damage rating SOY ([2]; rate 250 g ai/ha): 60 | crop damage rating RICE ([3]; rate 63 g ai/ha): 0 | crop damage rating RICE ([3]; rate 250 g ai/ha): 0 | crop damage rating CORN ([4]; rate 63 g ai/ha): 0 | crop damage rating CORN ([4]; rate 250 g ai/ha): 10 | RICE crop damage rating ([5]; Rate 125 g al/ha): 0 | RICE crop damage rating ([5]; Rate 250 g al/ha): 0 | CORN crop damage rating ([6]; Rate 125 g al/ha): 0 | CORN crop damage rating ([6]; Rate 250 g al/ha): 0 | SOY crop damage rating ([7]; Rate 125 g al/ha): 0 | SOY crop damage rating ([7]; Rate 250 g al/ha): 0 | phytotoxicity rating DIGSA ([8]; rate 63 g ai/ha): 0 | phytotoxicity rating DIGSA ([8]; rate 250 g ai/ha): 0 | phytotoxicity rating CHEAL ([9]; rate 63 g ai/ha): 60 | phytotoxicity rating CHEAL ([9]; rate 250 g ai/ha): 80 | phytotoxicity rating ECHCG ([10]; rate 63 g ai/ha): 0 | phytotoxicity rating ECHCG ([10]; rate 250 g ai/ha): 0 | phytotoxicity rating IPOHE ([11]; rate 63 g ai/ha): 40 | phytotoxicity rating IPOHE ([11]; rate 250 g ai/ha): 100 | phytotoxicity rating SETVI ([12]; rate 63 g ai/ha): 0 | phytotoxicity rating SETVI ([12]; rate 250 g ai/ha): 10 | phytotoxicity rating SORHA ([13]; rate 63 g ai/ha): 0 | phytotoxicity rating SORHA ([13]; rate 250 g ai/ha): 0 | phytotoxicity rating ABUTH ([14]; rate 63 g ai/ha): 100 | phytotoxicity rating ABUTH ([14]; rate 250 g ai/ha): 100 | phytotoxicity rating CASOB ([15]; rate 63 g ai/ha): 0 | phytotoxicity rating CASOB ([15]; rate 250 g ai/ha): 75 | phytotoxicity rating AMARE ([16]; rate 63 g ai/ha): 80 | phytotoxicity rating AMARE ([16]; rate 250 g ai/ha): 90 | DIGSA phytotoxicity rating ([17]; Rate 125 g al/ha): 0 | DIGSA phytotoxicity rating ([17]; Rate 250 g al/ha): 0 | CHEAL phytotoxicity rating ([18]; Rate 125 g al/ha): 50 | CHEAL phytotoxicity rating ([18]; Rate 250 g al/ha): 100 | ECHCG phytotoxicity rating ([19]; Rate 125 g al/ha): 0 | ECHCG phytotoxicity rating ([19]; Rate 250 g al/ha): 0 | IPOHE phytotoxicity rating ([20]; Rate 125 g al/ha): 0 | IPOHE phytotoxicity rating ([20]; Rate 250 g al/ha): 0 | SETVI phytotoxicity rating ([21]; Rate 125 g al/ha): 0 | SETVI phytotoxicity rating ([21]; Rate 250 g al/ha): 0 | SORHA phytotoxicity rating ([22]; Rate 125 g al/ha): 0 | SORHA phytotoxicity rating ([22]; Rate 250 g al/ha): 0 | ABUTH phytotoxicity rating ([23]; Rate 125 g al/ha): 50 | ABUTH phytotoxicity rating ([23]; Rate 250 g al/ha): 30 | CASOB phytotoxicity rating ([24]; Rate 125 g al/ha): 0 | CASOB phytotoxicity rating ([24]; Rate 250 g al/ha): 20 | AMARE phytotoxicity rating ([25]; Rate 125 g al/ha): 60 | AMARE phytotoxicity rating ([25]; Rate 250 g al/ha): 100
